Source: paper PMC6405930, “Conservation of the Amyloid Interactome Across Diverse Fibrillar Structures” (Scientific Reports, 2019)

Legend:
Ab1 fibrils [1] = system: T1, Ab1 fibrils; experiment: Fibril incubation with plasma, quantitative MS/MS of bound proteins; type: binding, human; conditions: 50:1 w/w plasma protein:fibril
T1 construct: Synthetic amyloid β peptide 1–40 was purchased from Caslo Aps (Lyngby, Denmark); purchased Caslo Aps (Lyngby, Denmark); host or cells: synthetic peptide
In short: (§1)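 Bound proteins quantified by XIC (three most abundant peptides), each normalized to run total intensity and averaged across nine LC-MS/MS experiments. Pellets came from 1 h room-temperature incubation of 20 μg fibrils with 500 μg plasma or 40 μg CSF protein in PBS with 5 mM EDTA.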

Ab2 fibrils [2] = system: T2, Ab2 fibrils; experiment: as above; type: binding, human; conditions: 50:1 w/w plasma protein:fibril
T2 construct: Two structurally distinct fibrils of the Aβ(1–40) peptide associated with AD

glucagon fibrils [3] = biological target: T3, glucagon fibrils (Homo sapiens, UniProt P01275); experiment: as above; type: binding; conditions: 50:1 w/w plasma protein:fibril
T3 construct: fibrils of the peptide hormone glucagon

C-36 fibrils [4] = biological target: T4, C-36 fibrils (Homo sapiens, UniProt P01009); experiment: as above; type: binding; conditions: 50:1 w/w plasma protein:fibril
T4 construct: the 36 residue C-terminal fragment of α1-antitrypsin (C-36)

αSN fibrils [5] = biological target: T5, αSN fibrils (Homo sapiens, UniProt P37840); experiment: as above; type: binding; conditions: 50:1 w/w plasma protein:fibril
In short: as §1

FAS4-AD aggregates [6] = system: T6, FAS4-AD aggregates; experiment: as above; type: binding, human; conditions: 50:1 w/w plasma protein:fibril
T6 construct: aggregates of a mutated version of the FAS1-4 domain of TGFBIp
In short: as §1

[7] = system: fibril systems (Ab1, Ab2, glucagon, αSN and C-36); experiment: Fibril incubation with plasma, quantitative MS/MS, span over the fibril systems; type: binding, human
Experimental: (§2) Plasma and CSF solutions were centrifuged (40,000 g, 20 min) to remove any aggregates. The protein concentration was determined using 280 nm absorbance assuming 1 Abs = 1 mg/mL. Samples with fibril material (20 μg), plasma (500 μg) or CSF (40 μg) proteins were prepared in 200 μL PBS buffer with 5 mM EDTA. Control samples (without fibril material) were prepared similarly. All samples were incubated at room temperature for one hour under gentle agitation. Fibrils and fibril-bound proteins were pelleted by centrifugation at 17,000 g for 30 minutes. The supernatant (175 μL) was removed and the aggregate was re-suspended in 175 μL PBS and pelleted again before further preparation for gel analysis and spin-filter assisted digest for quantitative MS/MS.
The fibril-protein pellets were transferred to spin-filters (0.22 μm), washed twice in PBS (100 μL) and once in 1 M NaCl (100 μL). The fibrils and fibril-bound proteins were dissolved by one-hour incubation in 100 μL 6 M guanidinium chloride followed by elution from the spin-filter. […]
The micro-purified tryptic peptides were dissolved in 0.1% formic acid, injected and trapped on an in-house packed trap column (2 cm × 100 μm I.D) with RP ReproSil-Pur C18-AQ 3 μm resin (Dr. Maisch GmbH). […] Elution from the analytical column was performed with a linear gradient from 5% to 35% phase B (90% acetonitrile with 0.1% formic acid) over 20 min for protein identification and 50 min for quantitative analysis, respectively.
All samples were analysed three times, yielding nine MS/MS experiments for each fibril for both plasma and CSF. For the area-based extracted ion chromatogram (XIC) quantification, the acquisition method was set up as an information-dependent acquisition (IDA) experiment collecting up to 25 MS/MS spectra in each 1.6 sec cycle using an exclusion window of 6 sec. […]
XIC quantification was based on the average ion intensity of the three most abundant peptides for each protein. Only proteins quantified in at least four out of nine MS/MS experiments per fibril were included in the quantification. […]

Ab1 fibrils [8] = system: T1, Ab1 fibrils; experiment: Fibril incubation with CSF, quantitative MS/MS of bound proteins; type: binding, human; conditions: 4:1 w/w CSF protein:fibril
Experimental: as §2, with “Samples with fibril material (20 μg), plasma (500 μg) or CSF (40 μg) proteins were prepared in 200 μL PBS buffer with 5 mM EDTA.” left out
(§3) The fibril-protein pellets were transferred to spin-filters (0.22 μm), washed twice in PBS (100 μL) and once in 1 M NaCl (100 μL). The fibrils and fibril-bound proteins were dissolved by one-hour incubation in 100 μL 6 M guanidinium chloride followed by elution from the spin-filter. The eluted proteins were loaded onto a 3 kDa MWCO filter unit for filter-assisted unfolding, reduction, alkylation, and trypsin digestion. In brief, samples were washed twice in 8 M urea, once in 8 M urea with 50 mM DTT, once in 8 M urea with 50 mM iodoaceteamide, and twice in 8 M Urea. The filter units were dried by centrifugation (14,000 g in 30 minutes) after every addition. Trypsin digestion was carried out with 0.25 μg sequencing grade trypsin from Sigma Aldrich in 50 mM ammonium bicarbonate overnight at 37 °C. The tryptic peptides were collected by centrifugation, acidified with TFA (0.1%) and micro-purified using POROS R2 column material (Applied Biosystems) packed in P200 pipette tips (Sarstedt).
(§4) LC-MS/MS analyses were performed on an EASY-nLC II system (Thermo Fisher Scientific) connected to a TripleTOF 5600+ mass spectrometer (Sciex) equipped with a NanoSpray III source (Sciex) and operated under Analyst TF 1.6.0 control.
(§5) The micro-purified tryptic peptides were dissolved in 0.1% formic acid, injected and trapped on an in-house packed trap column (2 cm × 100 μm I.D) with RP ReproSil-Pur C18-AQ 3 μm resin (Dr. Maisch GmbH). Peptides were eluted from the trap column and separated on a 15 cm analytical column (75 μm i.d.) packed in-house in a pulled emitter with RP ReproSil-Pur C18-AQ 3 μm resin (Dr. Maisch GmbH). Elution from the analytical column was performed with a linear gradient from 5% to 35% phase B (90% acetonitrile with 0.1% formic acid) over 20 min for protein identification and 50 min for quantitative analysis, respectively.
(§6) All samples were analysed three times, yielding nine MS/MS experiments for each fibril for both plasma and CSF. For the area-based extracted ion chromatogram (XIC) quantification, the acquisition method was set up as an information-dependent acquisition (IDA) experiment collecting up to 25 MS/MS spectra in each 1.6 sec cycle using an exclusion window of 6 sec.
(§7) XIC quantification was based on the average ion intensity of the three most abundant peptides for each protein. Only proteins quantified in at least four out of nine MS/MS experiments per fibril were included in the quantification. The total ion scores were visualized after grouping the proteins according to function (Figure S11).
(§8) For each MS/MS experiment, the ion intensities of the individual proteins were normalized to the total ion intensity of that MS/MS experiment to achieve a relative protein composition. The contribution of each protein was averaged over all nine MS/MS experiments (Tables 1 and 2).

Ab2 fibrils [9] = system: T2, Ab2 fibrils; experiment: as above; type: binding, human; conditions: 4:1 w/w CSF protein:fibril
Experimental: as §2, with “Samples with fibril material (20 μg), plasma (500 μg) or CSF (40 μg) proteins were prepared in 200 μL PBS buffer with 5 mM EDTA.” left out
as §3, §4, §5, §6, §7, §8

glucagon fibrils [10] = biological target: T3, glucagon fibrils; experiment: as above; type: binding; conditions: 4:1 w/w CSF protein:fibril
Experimental: as §2, with “Samples with fibril material (20 μg), plasma (500 μg) or CSF (40 μg) proteins were prepared in 200 μL PBS buffer with 5 mM EDTA.” left out
as §3, §4, §5, §6, §7, §8

C-36 fibrils [11] = biological target: T4, C-36 fibrils; experiment: as above; type: binding; conditions: 4:1 w/w CSF protein:fibril
Experimental: as §2, with “Samples with fibril material (20 μg), plasma (500 μg) or CSF (40 μg) proteins were prepared in 200 μL PBS buffer with 5 mM EDTA.” left out
as §3, §4, §5, §6, §7, §8

αSN fibrils [12] = biological target: T5, αSN fibrils; experiment: as above; type: binding; conditions: 4:1 w/w CSF protein:fibril
Experimental: as §2, with “Samples with fibril material (20 μg), plasma (500 μg) or CSF (40 μg) proteins were prepared in 200 μL PBS buffer with 5 mM EDTA.” left out
as §3, §4, §5, §6, §7, §8

FAS4-AD aggregates [13] = system: T6, FAS4-AD aggregates; experiment: as above; type: binding, human; design: key to Identification status of CSF protein bound: FAS4-AD: *: Identified, but not quantified; —: Not identified in any of the samples; conditions: symbol cells
Experimental: as §2, with “Samples with fibril material (20 μg), plasma (500 μg) or CSF (40 μg) proteins were prepared in 200 μL PBS buffer with 5 mM EDTA.” left out
as §3, §4, §5, §6, §7, §8

C-36 fibrils [14] = biological target: T4, C-36 fibrils; experiment: Fibril titration with ANS (fluorescence); type: binding; conditions: 2.5 μg aggregate material, ANS 20 to 167 μM
Experimental: (§9) Fibril material (2.5 μg) was set up in 50 μL phosphate buffer in a 96 well half-area NBS plate (NUNC/Terma). Stepwise ANS titration was conducted from 20 to 167 μM with 100 sec mixing (300 rpm) before each measurement using a FLUOstar Omega plate reader (excitation at […], emission at 485 nm).

[15] = system: chymotrypsinogen aggregates; experiment: Fibril titration with ANS (fluorescence); type: binding; conditions: 2.5 μg aggregate material, ANS 20 to 167 μM
Experimental: as §9

glucagon fibrils [16] = biological target: T3, glucagon fibrils; experiment: Fibril titration with ANS (fluorescence); type: binding; conditions: 2.5 μg aggregate material, ANS 20 to 167 μM
Experimental: as §9

αSN fibrils [17] = biological target: T5, αSN fibrils; experiment: Fibril titration with ANS (fluorescence); type: binding; conditions: 2.5 μg aggregate material, ANS 20 to 167 μM
Experimental: as §9

Ab1 fibrils [18] = system: T1, Ab1 fibrils; experiment: Fibril titration with ANS (fluorescence); type: binding, human; conditions: 2.5 μg aggregate material, ANS 20 to 167 μM
Experimental: as §9

Ab2 fibrils [19] = system: T2, Ab2 fibrils; experiment: Fibril titration with ANS (fluorescence); type: binding, human; conditions: 2.5 μg aggregate material, ANS 20 to 167 μM
Experimental: as §9

FAS4 AD aggregates = system: T7, FAS4 AD aggregates; experiment: Fibril titration with ANS (fluorescence); type: binding, human; conditions: 2.5 μg aggregate material, ANS 20 to 167 μM
T7 construct: a mutated version of the FAS1-4 domain of TGFBIp
Experimental: as §9

T3 sequence (P01275 53-81 limits assumed): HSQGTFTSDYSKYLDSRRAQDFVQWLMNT
T4 sequence (P01009 383-418 limits assumed): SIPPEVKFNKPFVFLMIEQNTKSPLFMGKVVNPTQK

Compound | Relative composition of plasma proteins bound: Ab1 (Ab1 fibrils [1]) | Relative composition of plasma proteins bound: Ab2 (Ab2 fibrils [2]) | Relative composition of plasma proteins bound: Glucagon (glucagon fibrils [3]) | Relative composition of plasma proteins bound: C-36 (C-36 fibrils [4]) | Relative composition of plasma proteins bound: αSN (αSN fibrils [5]) | Relative composition of plasma proteins bound: FAS4-AD (FAS4-AD aggregates [6]) | contribution to the fibril interactomes [7] | Relative composition of CSF proteins bound: Ab1 (Ab1 fibrils [8]) | Relative composition of CSF proteins bound: Ab2 (Ab2 fibrils [9]) | Relative composition of CSF proteins bound: Glucagon (glucagon fibrils [10]) | Relative composition of CSF proteins bound: C-36 (C-36 fibrils [11]) | Relative composition of CSF proteins bound: αSN (αSN fibrils [12]) | Identification status of CSF protein bound: FAS4-AD (FAS4-AD aggregates [13]) | ANS fluorescence signal (C-36 fibrils [14]) | ANS fluorescence signal [15] | ANS fluorescence signal (glucagon fibrils [16]) | ANS fluorescence signal (αSN fibrils [17]) | ANS fluorescence signal (Ab1 fibrils [18]) | ANS fluorescence signal (Ab2 fibrils [19]) | ANS fluorescence signal (FAS4 AD aggregates)
Apolipoprotein A-I: plasma/CSF protein bound to fibrils | 8.8 ± 0.9 % of total protein | 14.9 ± 7.0 % of total protein | 11.7 ± 1.4 % of total protein | 13.5 ± 0.5 % of total protein | 14.7 ± 3.0 % of total protein | 15.7 ± 4.6 % of total protein | 8.8–14.9% | 3.9 ± 0.4 % of total protein | 2.9 ± 0.6 % of total protein | 2.6 ± 0.8 % of total protein | 5.0 ± 1.6 % of total protein | 2.7 ± 1.0 % of total protein | * | – | – | – | – | – | – | –
O=S(=O)(O)c1cccc2cccc(Nc3ccccc3)c12 [ANS, 8-anilinonaphthalene sulfonate] | – | – | – | – | – | – | – | – | – | – | – | – | – | little or no signal at all | intermediate signal intensities | little or no signal at all | significant fluorescence enhancements | little or no signal at all | little or no signal at all | intermediate signal intensities
